Legend:
[1] = Tests of dissolution rates (turbidimeter, purified water); assay type: physicochemical; design: Reading: unit not given here; details: for Solution state / Reading / Turbidity: 50 mg in 10 ml purified water; for Clarity achieved in purified water: in a short period of time, summary of Table 3; for Reading: turbidimeter
Protocol: The turbidimeter and the test conditions involved in the present invention are: turbidimeter model: MERCK TURBIQUANT 1500IR; operation method: the purified water was used as a zero point control, 50 mg of crystal form I of fludarabine phosphate and 50 mg of crystal form II of fludarabine phosphate were dissolved in 10 ml of purified water respectively as test samples, the specific test data can be seen in Table 3.
Tests of Dissolution Rates for Crystal Form I and Crystal Form II of Fludarabine Phosphate

[2] = Stability tests (sealed PE and aluminum foil bags, liquid chromatography); assay type: physicochemical; details: for Stability in words: under room temperature and refrigerated conditions, summary of Table 4
Protocol: The liquid chromatography test conditions involved in the present invention are: chromatographic column: SHIMADZU, VP-ODS, 4.6 mm×15 cm 5 μm or equivalent;
mobile phase A: 10 mM monopotassium phosphate (0.01 mol/l):methanol=47:3; detection wavelength: 260 nm; flow rate: 1.0 ml/min; injection volume: 10 μl.
Packaging condition: crystal form I and crystal form II of fludarabine phosphate were first sealed and packaged with PE bags respectively, and then sealed and packaged with aluminum foil bags outside, the samples were reserved at room temperature and refrigerated conditions, the samples were tested with the liquid chromatography. The test condition of the liquid chromatography is described in SUMMARY OF THE INVENTION section of this application.

[3] = before the samples were reserved
[4] = refrigerated (2-10° C.), humidity 75%, reserved for five months
[5] = refrigerated (2-10° C.), humidity 75%, reserved for four months
[6] = refrigerated (2-10° C.), humidity 75%, reserved for one month
[7] = refrigerated (2-10° C.), humidity 75%, reserved for six months
[8] = refrigerated (2-10° C.), humidity 75%, reserved for three months
[9] = refrigerated (2-10° C.), humidity 75%, reserved for two months
[10] = room temperature (10-30° C.), humidity 75%, reserved for five months
[11] = room temperature (10-30° C.), humidity 75%, reserved for four months
[12] = room temperature (10-30° C.), humidity 75%, reserved for one month
[13] = room temperature (10-30° C.), humidity 75%, reserved for six months
[14] = room temperature (10-30° C.), humidity 75%, reserved for three months
[15] = room temperature (10-30° C.), humidity 75%, reserved for two months
[16] = 10 s, listed as Cyrstal form II
[17] = 40 s, listed as Cyrstal form II

Row | Compound | Solution state ([1]; 70 s) | Solution state ([1]; 80 s) | Solution state ([1]; 90 s) | Solution state ([1]; 100 s) | Clarity achieved in purified water [1] | Liquid chromatography result of stability sample [2, 3] [%] | Liquid chromatography result of stability sample [2, 4] [%] | Liquid chromatography result of stability sample [2, 5] [%] | Liquid chromatography result of stability sample [2, 6] [%] | Liquid chromatography result of stability sample [2, 7] [%] | Liquid chromatography result of stability sample [2, 8] [%] | Liquid chromatography result of stability sample [2, 9] [%] | Liquid chromatography result of stability sample [2, 10] [%] | Liquid chromatography result of stability sample [2, 11] [%] | Liquid chromatography result of stability sample [2, 12] [%] | Liquid chromatography result of stability sample [2, 13] [%] | Liquid chromatography result of stability sample [2, 14] [%] | Liquid chromatography result of stability sample [2, 15] [%] | Stability in words [2] | other results
1 | Nc1nc(F)nc2c1ncn2[C@@H]1O[C@H](COP(=O)(O)O)[C@@H](O)[C@@H]1O [Crystal form I, 9-β-D-arabinofuranosyl-2-fluoroadenine-5′-phosphate] | Clear | Clear | Clear | Clear | good clarity | 99.685 | 99.685 | 99.685 | 99.685 | 99.685 | 99.685 | 99.685 | 99.684 | 99.684 | 99.685 | 99.684 | 99.685 | 99.685 | good stabilities | Solution state ([1]; 5 s): Clear; Solution state ([1]; 10 s): Clear; Solution state ([1]; 20 s): Clear; Solution state ([1]; 30 s): Clear; Solution state ([1]; 40 s): Clear; Solution state ([1]; 50 s): Clear; Solution state ([1]; 60 s): Clear; Reading ([1]; 5 s): 2.2; Reading ([1]; 10 s): 1.75; Reading ([1]; 20 s): 1.75; Reading ([1]; 30 s): 1.75; Reading ([1]; 40 s): 1.75; Reading ([1]; 50 s): 1.75; Reading ([1]; 60 s): 1.75; Reading ([1]; 70 s): 1.75; Reading ([1]; 80 s): 1.75; Reading ([1]; 90 s): 1.75; Reading ([1]; 100 s): 1.75
2 | Nc1nc(F)nc2c1ncn2[C@@H]1O[C@H](COP(=O)(O)O)[C@@H](O)[C@@H]1O [Crystal form II, 9-β-D-arabinofuranosyl-2-fluoroadenine-5′-phosphate] | Clear | Clear | Clear | Clear | good clarity | 99.677 | 99.677 | 99.677 | 99.677 | 99.677 | 99.677 | 99.677 | 99.663 | 99.663 | 99.673 | 99.663 | 99.667 | 99.668 | good stabilities | Solution state ([1]; 5 s, listed as Cyrstal form II): Turbid; Turbidity ([1]; 5 s, listed as Cyrstal form II): Sample >1; Solution state [1, 16]: Turbid; Turbidity [1, 16]: Sample >1; Solution state ([1]; 20 s, listed as Cyrstal form II): Turbid; Solution state ([1]; 30 s, listed as Cyrstal form II): Turbid; Solution state [1, 17]: Turbid; Reading [1, 17]: 6.41; Reading ([1]; 50 s, listed as Cyrstal form II): 4.54; Reading ([1]; 60 s, listed as Cyrstal form II): 3.32; Reading ([1]; 70 s, listed as Cyrstal form II): 2.56; Reading ([1]; 80 s, listed as Cyrstal form II): 2.41; Reading ([1]; 90 s, listed as Cyrstal form II): 2.29; Reading ([1]; 100 s, listed as Cyrstal form II): 2.29

From patent US10669302B2, “Crystal form of fludarabine phosphate, preparation method therefor, and application thereof” (Zhejiang Hisun Pharmaceutical Co., Ltd., priority 2015, dated 2020)
